Molecular target: T1, Calpain-1 catalytic subunit (Homo sapiens, UniProt P07384)
T1 sequence (P07384 whole entry): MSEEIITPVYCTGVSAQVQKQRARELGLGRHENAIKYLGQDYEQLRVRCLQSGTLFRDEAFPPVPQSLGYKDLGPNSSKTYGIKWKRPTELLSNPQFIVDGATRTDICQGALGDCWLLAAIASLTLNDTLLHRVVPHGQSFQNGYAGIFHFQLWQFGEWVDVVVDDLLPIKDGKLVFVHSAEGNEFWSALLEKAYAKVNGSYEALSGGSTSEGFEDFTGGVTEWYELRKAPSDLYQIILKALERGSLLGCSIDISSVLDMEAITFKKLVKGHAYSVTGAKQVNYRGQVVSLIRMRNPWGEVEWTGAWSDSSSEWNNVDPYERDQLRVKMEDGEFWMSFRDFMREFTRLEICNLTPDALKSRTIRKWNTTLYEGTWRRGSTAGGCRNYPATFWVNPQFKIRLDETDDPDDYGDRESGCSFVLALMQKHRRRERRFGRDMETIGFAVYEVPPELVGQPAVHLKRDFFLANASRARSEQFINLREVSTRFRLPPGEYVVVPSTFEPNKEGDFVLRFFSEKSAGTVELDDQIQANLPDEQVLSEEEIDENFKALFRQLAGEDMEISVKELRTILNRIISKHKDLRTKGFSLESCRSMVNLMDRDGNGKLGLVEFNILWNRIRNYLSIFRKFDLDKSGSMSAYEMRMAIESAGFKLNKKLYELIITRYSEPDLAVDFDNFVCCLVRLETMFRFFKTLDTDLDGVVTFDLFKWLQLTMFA
Experiment: Inhibitory activity against human Calpain 1 isolated from erythrocytes
Assay type: cell-free

- Ki: 15 nM
SMILES: O=CC(Cc1ccccc1)NC(=O)c1ccccc1/C=C/c1cccc2ccccc12 (stereo unspecified)
